In patent US20050089571A1, “Pharmaceutical formulation for the active ingredient budesonide” (ROEHM GMBH & CO.KG, priority 2002, published 2005):

Experiment: Release test for budesonide, USP XXIII <711> Dissolution, apparatus 2 (paddle), 100 revolutions/min
Format: physicochemical
Description: The release test for budesonide is carried out in accordance with USP XXIII monograph <711> “Dissolution” with apparatus 2 (paddle) with 100 revolutions/min in phosphate buffer of pH 7.5 according to the monograph “Intestinal Fluid, Simulated, TS” without addition of pepsin or in purified water with the paddle at 100 revolutions/min with 500 ml of dissolving medium. 400 mg of sample were weighed for each determination. Detection took place by means of HPLC with a PP 18 column, 10 cm (Phenomenex) and UV detection at 246 nm. Equipment: pump L 7000 100 (from Merck-Hitachi, Darmstadt, Germany), autosampler L 7000 200 (from Merck-Hitachi, Darmstadt, Germany) UV/VIS detector L 4250 (from Merck-Hitachi, Darmstadt, Germany). The volume injected was 100 μl, and the flow rate was 1 ml/min. The retention times averaged 2.5 min. At the end of the test, the pellets were homogenized with an Ultra Turrax for 10 min. The content was used as 100% value in the calculation. 3 to 6 tests were carried out for each medium.
The pellets release the active ingredient under the indicated conditions in vitro as described below. At the end of the test, the pellets were homogenized using an Ultra Turrax for 10 min, and the budesonide concentration in the solution was again determined. The latter measurement was used as 100% value (theoretically possible budesonide content in the solution) in the calculation.

Which results are given for `CCCC1O[C@@H]2C[C@H]3[C@@H]4CCC5=CC(=O)C=C[C@]5(C)[C@H]4[C@@H](O)C[C@]3(C)[C@]2(C(=O)CO)O1` (stereo partly shown) [Example 1, budesonide]?
Release in purified water and phosphate buffer of pH 7.5, Mean (time 0 min): 0.0 % of theory; Release in purified water and phosphate buffer of pH 7.5, Mean (time 60 min): ca. 3.7 % of theory; Release in purified water and phosphate buffer of pH 7.5, Mean (time 120 min): ca. 5.4 % of theory; Release in purified water and phosphate buffer of pH 7.5, Mean (time 180 min): ca. 7.1 % of theory
